Experimental data: US20130011427A1 (priority 2009, published 2013)

Experiments:
[1] = tested on: HLA-B7 (HLA-B*0702) Tg mice, CD4-depleted splenocytes; assay type: cell-based, mouse
[2] = tested on: HLA-A24/huCD8α (HLA-A*2402) Tg mice, CD4-depleted splenocytes; assay type: cell-based, mouse
[3] = tested on: HLA-DR4/huCD4 (DRB1*0401) Tg mice, CD8-depleted splenocytes; assay type: cell-based, mouse
[4] = tested on: HLA-DR2 (DRB1*1501) Tg mice, CD8-depleted splenocytes; assay type: cell-based, mouse
[5] = tested on: HLA-A2.1 (HLA-A*0201) Tg mice, CD4-depleted splenocytes; assay type: cell-based, mouse
[6] = biological target: HLA-A24 (HLA-A*2402 with human β2-microglobulin) (human); assay: cell-based or functional assay
[7] = biological target: HLA-DR4 (HLA-DRA*0101 / HLA-DRB1*0401) (human); assay: cell-based or functional assay
[8] = biological target: HLA-DR2 (chimeric HLA-DRA1*0101/DRB1*1501 with I-E domains) (human; murine) (UniProt Q8BHN5); assay: cell-based or functional assay
Sequence of UniProt Q8BHN5 (Q8BHN5 whole entry, stated change not applied): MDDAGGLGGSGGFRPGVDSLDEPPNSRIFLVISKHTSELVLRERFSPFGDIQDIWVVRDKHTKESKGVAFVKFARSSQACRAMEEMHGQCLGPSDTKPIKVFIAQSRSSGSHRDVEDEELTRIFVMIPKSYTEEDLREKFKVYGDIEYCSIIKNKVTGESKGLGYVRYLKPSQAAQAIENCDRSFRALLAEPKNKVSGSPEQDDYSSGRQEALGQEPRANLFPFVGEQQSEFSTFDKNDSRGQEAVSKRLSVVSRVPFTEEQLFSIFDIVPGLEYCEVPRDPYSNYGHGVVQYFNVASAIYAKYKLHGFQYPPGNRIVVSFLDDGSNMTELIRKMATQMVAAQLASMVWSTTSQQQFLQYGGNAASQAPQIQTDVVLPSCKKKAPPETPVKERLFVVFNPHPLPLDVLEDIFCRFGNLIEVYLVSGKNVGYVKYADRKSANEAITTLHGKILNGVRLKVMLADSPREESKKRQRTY

[9] = biological target: HLA-B7 (chimeric HLA-B*0702 / H-2K^d heavy chain) (human; murine) (UniProt P01902); assay: cell-based or functional assay
Sequence of UniProt P01902 (P01902 whole entry, change not shown): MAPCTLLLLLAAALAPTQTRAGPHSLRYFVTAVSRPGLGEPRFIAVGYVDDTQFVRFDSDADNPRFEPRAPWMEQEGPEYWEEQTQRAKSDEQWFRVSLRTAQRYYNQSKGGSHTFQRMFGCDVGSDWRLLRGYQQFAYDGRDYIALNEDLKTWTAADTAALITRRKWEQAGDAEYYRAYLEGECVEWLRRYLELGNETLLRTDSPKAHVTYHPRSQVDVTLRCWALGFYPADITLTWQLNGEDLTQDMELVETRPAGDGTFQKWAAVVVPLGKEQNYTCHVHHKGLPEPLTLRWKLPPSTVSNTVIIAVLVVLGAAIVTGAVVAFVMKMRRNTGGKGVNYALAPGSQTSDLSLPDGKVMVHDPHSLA

[10] = biological target: HLA-DR3 (HLA-DRA*0101 / HLA-DRB1*0301) (human); assay: cell-based or functional assay

| Substance | T cell activation of HLA transgenic mice (SFC/10^6) IFN-γ ELISpot, B7 [1] | IFN-γ ELISpot (SFC/10^6) [6] | IFN-γ ELISpot (SFC/10^6) [7] | other results |
| --- | --- | --- | --- | --- |
| GKSRAVNMLKRGMPRVL [C 9-25] | 43 ± 17 SFC/10^6 | – | – | – |
| ISAYTPWAILPSVVGFWI [NS2b 107-124] | 81 ± 8 SFC/10^6 | – | – | T cell activation of HLA transgenic mice (SFC/10^6) IFN-γ ELISpot, A24 [2]: 50 ± 11 SFC/10^6; T cell activation of HLA transgenic mice (SFC/10^6) IFN-γ ELISpot, DR4 [3]: 163 ± 4 SFC/10^6 |
| LRNPGYALVAAVIGWML [prM 129-145] | 31 ± 7 SFC/10^6 | – | – | T cell activation of HLA transgenic mice (SFC/10^6) IFN-γ ELISpot, A24 [2]: 71 ± 38 SFC/10^6; T cell activation of HLA transgenic mice (SFC/10^6) IFN-γ ELISpot, DR2 [4]: 62 ± 11 SFC/10^6 |
| PAAPSYTLKLGEYGEVTV [E 171-188] | 996 ± 100 SFC/10^6 | – | – | T cell activation of HLA transgenic mice (SFC/10^6) IFN-γ ELISpot, A2 [5]: 279 ± 217 SFC/10^6 |
| SAEVEEHRTIRVLEMV [NS5 153-168] | 112 ± 72 SFC/10^6 | – | – | T cell activation of HLA transgenic mice (SFC/10^6) IFN-γ ELISpot, A2 [5]: 332 ± 52 SFC/10^6; T cell activation of HLA transgenic mice (SFC/10^6) IFN-γ ELISpot, DR2 [4]: 250 ± 24 SFC/10^6 |
| TFLVHREWFMDLNLPW [E 210-225] | 519 ± 477 SFC/10^6 | – | – | T cell activation of HLA transgenic mice (SFC/10^6) IFN-γ ELISpot, A2 [5]: 323 ± 175 SFC/10^6 |
| WMEDKTPVEKWSDVPY [NS5 828-843] | 39 ± 14 SFC/10^6 | – | – | – |
| WNV E 195-212 peptide | – | 137 SFC/10^6 | 53 SFC/10^6 | – |
| WNV NS2a 45-61 peptide | – | 243 SFC/10^6 | 74 SFC/10^6 | IFN-γ ELISpot (SFC/10^6) [8]: 307 SFC/10^6 |
| WNV NS2b 107-124 peptide | – | 50 SFC/10^6 | 163 SFC/10^6 | IFN-γ ELISpot (SFC/10^6) [9]: 81 SFC/10^6 |
| WNV NS4a 86-103 peptide | – | 65 SFC/10^6 | 63 SFC/10^6 | – |
| WNV NS5 470-486 peptide | – | 183 SFC/10^6 | – | – |
| WNV NS5 863-879 peptide | – | 79 SFC/10^6 | 33 SFC/10^6 | IFN-γ ELISpot (SFC/10^6) [10]: 121 SFC/10^6 |
| WNV prM 129-145 peptide | – | 71 SFC/10^6 | – | IFN-γ ELISpot (SFC/10^6) [9]: 31 SFC/10^6; IFN-γ ELISpot (SFC/10^6) [8]: 62 SFC/10^6 |
| YAQMWLLLYFHRRDLRLM [NS5 763-780] | 36 ± 16 SFC/10^6 | – | – | T cell activation of HLA transgenic mice (SFC/10^6) IFN-γ ELISpot, DR4 [3]: 91 ± 32 SFC/10^6 |
